Experimental data reported in publication PMC10892375, “Determination of the Cannabinoid CB1 Receptor’s Positive Allosteric Modulator Binding Site through Mutagenesis Studies” (Pharmaceuticals, 2024).

How the values were obtained:
Assay type in all cases: cell-based
[1] = target: T1, hCB1 mutant I245A^4.54 (Homo sapiens, UniProt P21554, I245A); assay: pIRES G protein dissociation BRET assay, I245A mutant
T1 construct: expressed in transfected cells; host or cells: HEK293
Experimental: (§1) Mutagenesis studies using the pIRES G protein dissociation assay were performed using human embryonic kidney 293 (HEK293) wild-type cells transiently transfected with pplss-3HA-hCB1 [31] or modified receptor. All cells were cultured in Dulbecco’s Modified Eagle’s Medium (DMEM) supplemented with 10% fetal bovine serum (FBS), grown in […] vented-cap flasks, and maintained in a 37° C incubator at 5% CO2.
(§2) Mutants of pplss-3HA-hCB1 (WT, pEF-V4-HisA (pEF4a) construct) were generated using a modified QuikChange® (Stratagene, San Diego, CA, USA) site-directed mutagenesis approach using KAPA HiFi Hotstart Polymerase (KAPA Biosystems, Roche, Basel, Switzerland). Briefly, single-stranded primers used to modify one or two base pairs within the target amino acid using PCR were purchased from Integrated DNA Technologies (IDT, Coralville, IA, USA). All pplss-hCB1 mutants were generated using the pplss-3HA-hCB1 pEF4a as parental DNA. PCR products were generated using recommended cycling conditions and treated with Dpn1 (New England Biolabs, Ipswich, MA, USA) overnight at 37° C to digest methylated parental DNA. PCR products were electrophoresed and run on an agarose gel (1% (w.v^−1) agarose, HydraGene, Piscataway, NJ, USA) containing 0.25 μg/mL ethidium bromide (Sigma-Aldrich, St. Louis, MO, USA). Gels were run in 40 mM TRIS-acetate buffer containing […] (pH 8.3) at 100 V for 30 min, maximum current and included a 1kb+ DNA ladder (Invitrogen, Thermo Fisher Scientific, Carlsbad, CA, USA) for reference. Gels were imaged using an UVTech Alliance Q9 Mini transilluminator (UVTech Alliance, Cambridge, UK). Digested products were then used to transform NEB 5α competent E. coli cells in accordance with manufacturer’s instructions. Briefly, transformed PCR products were grown overnight on 8.5 mL Luria Broth agar plates (containing 100 μg/mL ampicillin) at 37° C. Single bacterial colonies were picked and inoculated in Luria Broth (containing 100 μg/mL ampicillin) and grown overnight in a shaking incubator at 37° C. Plasmids were then harvested and purified using a Qiagen miniprep kit (Qiagen, Hilden, Germany) and validated using sequencing (Genetics Analysis Service, University of Otago, Dunedin, New Zealand).
(§3) Dissociation of the G protein heterotrimer, specifically Gαi1, Gβ1, and Gγ2, was investigated using a bioluminescence resonance energy transfer (BRET) assay with the pIRES biosensor first described by and adapted by.
(§4) Briefly, 3 × 10^6 WT HEK293 cells were seeded into 10 cm culture dishes (Corning, Corning, NY, USA; one dish for the control receptor and one for each modified receptor) and incubated at 37 °C for 24 h to gain 50–60% confluency. Culture medium was then replaced and transfection mixtures containing 3 μg pIRES vector and 1 μg receptor (either pplss-hCB1 or modified receptor) were prepared (4 μg total DNA). Plasmids were initially diluted in sterile Milli-Q water before being diluted in OptiMEM reduced serum medium (Thermo Fisher Scientific, Waltham, MA, USA) and combined with […] polyethylenimine (PEI)-max (1:9 DNA:PEI-max ratio) and incubated at room temperature for 20 min. Transfection mixtures were then added to cells via dropwise addition, and cells were incubated at 37 °C for 24 h. Transfected cells were lifted and plated at 50,000 cells/well into poly-d-lysine (PDL; Sigma-Aldrich) coated white 96-well CulturPlates (PerkinElmer, Waltham, MA, USA) and incubated for a further 24 h at 37 °C.
(§5) To assay, the culture medium was aspirated and cells were washed with phosphate buffered saline (PBS) and replaced with BRET assay medium (phenol red free DMEM containing 25 mM HEPES and supplemented with 1 mg/mL bovine serum albumin; BSA, MP Biomedicals, Auckland, New Zealand) for 30 min prior to drug addition (serum starve). Drugs were prepared at 10 × concentration in BRET assay medium, combined in a polypropylene V-bottom plate, and incubated at 37° C prior to drug stimulation.

[2] = target: T2, hCB1 mutant F191A^3.27 (Homo sapiens, UniProt P21554, F191A); assay: pIRES G protein dissociation BRET assay, F191A mutant
T2 construct: expressed in transfected cells; host or cells: HEK293
Experimental: as §1, §2, §3, §4, §5

[3] = target: T3, hCB1 mutant Y172A^2.59 (Homo sapiens, UniProt P21554, Y172A); assay: pIRES G protein dissociation BRET assay, Y172A mutant
T3 construct: expressed in transfected cells; host or cells: HEK293
Experimental: as §1, §2, §3, §4, §5

[4] = target: T4, hCB1 mutant L209A^3.45 (Homo sapiens, UniProt P21554, L209A); assay: pIRES G protein dissociation BRET assay, L209A mutant
T4 construct: expressed in transfected cells; host or cells: HEK293
Experimental: as §1, §2, §3, §4
as §5, with “stimulation. […]” for “stimulation.”

[5] = target: T5, hCB1 mutant F408A^8.54 (Homo sapiens, UniProt P21554, F408A); assay: pIRES G protein dissociation BRET assay, F408A mutant
T5 construct: expressed in transfected cells; host or cells: HEK293
Experimental: as §1, §2, §3, §4, §5

[6] = target: T6, hCB1 mutant L404A^8.50 (Homo sapiens, UniProt P21554, L404A); assay: pIRES G protein dissociation BRET assay, L404A mutant
T6 construct: expressed in transfected cells; host or cells: HEK293
Experimental: as §1, §2, §3, §4, §5

[7] = target: T7, hCB1 mutant H154A^2.41 (Homo sapiens, UniProt P21554, H154A); assay: pIRES G protein dissociation BRET assay, H154A mutant
T7 construct: expressed in transfected cells; host or cells: HEK293
Experimental: as §1, §2, §3, §4, §5

[8] = target: T8, hCB1 mutant K232A^4.41 (Homo sapiens, UniProt P21554, K232A); assay: pIRES G protein dissociation BRET assay, K232A mutant
T8 construct: expressed in transfected cells; host or cells: HEK293
Experimental: as §1, §2, §3, §4, §5

[9] = target: T9, hCB1 mutant F237A^4.46 (Homo sapiens, UniProt P21554, F237A); assay: pIRES G protein dissociation BRET assay, F237A mutant
T9 construct: expressed in transfected cells; host or cells: HEK293
Experimental: as §1, §2, §3, §4, §5

[10] = target: T10, hCB1 mutant R220A^3.56 (Homo sapiens, UniProt P21554, R220A); assay: pIRES G protein dissociation BRET assay, R220A mutant
T10 construct: expressed in transfected cells; host or cells: HEK293
Experimental: as §1, §2, §3, §4, §5

[11] = target: T11, hCB1 mutant S173A^2.60 (Homo sapiens, UniProt P21554, S173A); assay: pIRES G protein dissociation BRET assay, S173A mutant
T11 construct: expressed in transfected cells; host or cells: HEK293
Experimental: as §1, §2, §3, §4, §5

[12] = 10 μM CP55940 in the presence of 10 μM ZCZ011
[13] = in the presence of 10 μM GAT228
[14] = in the presence of 10 μM GAT229
[15] = top of the curve (maximal response)

T5 sequence (P21554 whole entry F408A): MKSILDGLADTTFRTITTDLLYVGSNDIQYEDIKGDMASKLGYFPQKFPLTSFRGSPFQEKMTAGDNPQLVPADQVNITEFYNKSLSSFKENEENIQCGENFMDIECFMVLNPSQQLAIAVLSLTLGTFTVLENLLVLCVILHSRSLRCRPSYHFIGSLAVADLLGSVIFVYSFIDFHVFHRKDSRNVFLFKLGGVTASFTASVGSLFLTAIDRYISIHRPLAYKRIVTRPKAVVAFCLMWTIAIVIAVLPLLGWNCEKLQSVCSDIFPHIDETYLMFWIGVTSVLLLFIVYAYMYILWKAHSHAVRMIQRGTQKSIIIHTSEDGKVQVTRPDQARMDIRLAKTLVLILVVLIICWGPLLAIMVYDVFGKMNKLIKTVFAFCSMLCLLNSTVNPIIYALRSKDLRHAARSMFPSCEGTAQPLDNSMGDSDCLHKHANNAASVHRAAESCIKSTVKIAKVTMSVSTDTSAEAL
T11 sequence (P21554 whole entry S173A): as the sequence (P21554 whole entry F408A) above, with S173A, A408F counted along it
T3 sequence (P21554 whole entry Y172A): as the sequence (P21554 whole entry F408A) above, with Y172A, A408F counted along it
T10 sequence (P21554 whole entry R220A): as the sequence (P21554 whole entry F408A) above, with R220A, A408F counted along it
T9 sequence (P21554 whole entry F237A): as the sequence (P21554 whole entry F408A) above, with F237A, A408F counted along it
T7 sequence (P21554 whole entry H154A): as the sequence (P21554 whole entry F408A) above, with H154A, A408F counted along it
T1 sequence (P21554 whole entry I245A): as the sequence (P21554 whole entry F408A) above, with I245A, A408F counted along it
T2 sequence (P21554 whole entry F191A): as the sequence (P21554 whole entry F408A) above, with F191A, A408F counted along it
T8 sequence (P21554 whole entry K232A): as the sequence (P21554 whole entry F408A) above, with K232A, A408F counted along it
T6 sequence (P21554 whole entry L404A): as the sequence (P21554 whole entry F408A) above, with L404A, A408F counted along it
T4 sequence (P21554 whole entry L209A): as the sequence (P21554 whole entry F408A) above, with L209A, A408F counted along it

CCCCCCC(C)(C)c1ccc([C@@H]2C[C@H](O)CC[C@H]2CCCO)c(O)c1 [CP55940]
G protein dissociation, AUC, 10 μM CP55940 + 10 μM ZCZ011 [1, 12]: −183.2 ± 7.2
EMAX, CP55940 + 10 μM GAT228 [1, 13]: −163.7 ± 8.2 ∆BRET.sec
EMAX, CP55940 + 10 μM GAT229 [1, 14]: −182.9 ± 7.0 ∆BRET.sec
EMAX, CP55940 Alone [1, 15]: −150.1 ± 9.8 ∆BRET.sec
G protein dissociation, AUC, 10 μM CP55940 + 10 μM ZCZ011 [2, 12]: −134.7 ± 12.4
G protein dissociation, AUC of 10 μM compound (maximal response) ([2]; 10 μM ligand alone): −117.8 ± 7.5
EMAX, CP55940 + 10 μM GAT228 [2, 13]: −123.9 ± 7.4 ∆BRET.sec
EMAX, CP55940 + 10 μM GAT229 [2, 14]: −119.1 ± 7.8 ∆BRET.sec
EMAX, CP55940 Alone [2, 15]: −117.3 ± 6.1 ∆BRET.sec
G protein dissociation, AUC, 10 μM CP55940 + 10 μM ZCZ011 [3, 12]: −305.2 ± 5.7
G protein dissociation, AUC of 10 μM compound (maximal response) ([3]; 10 μM ligand alone): −284.7 ± 8.4
EMAX, CP55940 + 10 μM GAT228 [3, 13]: −298.9 ± 5.4 ∆BRET.sec
EMAX, CP55940 + 10 μM GAT229 [3, 14]: −309.0 ± 3.5 ∆BRET.sec
EMAX, CP55940 Alone [3, 15]: −273.2 ± 6.9 ∆BRET.sec
G protein dissociation, AUC, 10 μM CP55940 + 10 μM ZCZ011 [4, 12]: −71.3 ± 4.2
G protein dissociation, AUC of 10 μM compound (maximal response) ([4]; 10 μM ligand alone): −42.7 ± 2.8
EMAX, CP55940 + 10 μM GAT228 [4, 13]: −43.2 ± 4.5 ∆BRET.sec
EMAX, CP55940 + 10 μM GAT229 [4, 14]: −51.9 ± 2.8 ∆BRET.sec
EMAX, CP55940 Alone [4, 15]: −39.8 ± 1.1 ∆BRET.sec
G protein dissociation, AUC, 10 μM CP55940 + 10 μM ZCZ011 [5, 12]: −159.7 ± 13.4
G protein dissociation, AUC of 10 μM compound (maximal response) ([5]; 10 μM ligand alone): −131.7 ± 10.4
EMAX, CP55940 + 10 μM GAT228 [5, 13]: −148.4 ± 11.4 ∆BRET.sec
EMAX, CP55940 + 10 μM GAT229 [5, 14]: −154.0 ± 14.5 ∆BRET.sec
EMAX, CP55940 Alone [5, 15]: −128.6 ± 12.1 ∆BRET.sec
G protein dissociation, AUC, 10 μM CP55940 + 10 μM ZCZ011 [6, 12]: −133.5 ± 5.6
G protein dissociation, AUC of 10 μM compound (maximal response) ([6]; 10 μM ligand alone): −110.3 ± 3.7
EMAX, CP55940 + 10 μM GAT228 [6, 13]: −115.1 ± 8.3 ∆BRET.sec
EMAX, CP55940 + 10 μM GAT229 [6, 14]: −122.3 ± 7.0 ∆BRET.sec
EMAX, CP55940 Alone [6, 15]: −103.1 ± 3.6 ∆BRET.sec
G protein dissociation, AUC, 10 μM CP55940 + 10 μM ZCZ011 [7, 12]: −189.5 ± 8.5
EMAX, CP55940 + 10 μM GAT228 [7, 13]: −200.5 ± 11.6 ∆BRET.sec
EMAX, CP55940 + 10 μM GAT229 [7, 14]: −210.6 ± 10.1 ∆BRET.sec
EMAX, CP55940 Alone [7, 15]: −151.8 ± 5.9 ∆BRET.sec
G protein dissociation, AUC, 10 μM CP55940 + 10 μM ZCZ011 [8, 12]: −194.9 ± 7.2
G protein dissociation, AUC of 10 μM compound (maximal response) ([8]; 10 μM ligand alone): −167.7 ± 9.6
EMAX, CP55940 + 10 μM GAT228 [8, 13]: −181.9 ± 8.6 ∆BRET.sec
EMAX, CP55940 + 10 μM GAT229 [8, 14]: −194.9 ± 9.0 ∆BRET.sec
EMAX, CP55940 Alone [8, 15]: −160.6 ± 7.6 ∆BRET.sec
G protein dissociation, AUC, 10 μM CP55940 + 10 μM ZCZ011 [9, 12]: −85.2 ± 9.9
G protein dissociation, AUC of 10 μM compound (maximal response) ([9]; 10 μM ligand alone): −69.8 ± 6.5
EMAX, CP55940 + 10 μM GAT228 [9, 13]: −69.4 ± 6.4 ∆BRET.sec
EMAX, CP55940 + 10 μM GAT229 [9, 14]: −67.4 ± 8.3 ∆BRET.sec
EMAX, CP55940 Alone [9, 15]: −69.8 ± 6.7 ∆BRET.sec
G protein dissociation, AUC, 10 μM CP55940 + 10 μM ZCZ011 [10, 12]: −137.8 ± 5.0
G protein dissociation, AUC of 10 μM compound (maximal response) ([10]; 10 μM ligand alone): −112.1 ± 2.9
EMAX, CP55940 + 10 μM GAT228 [10, 13]: −140.1 ± 13.5 ∆BRET.sec
EMAX, CP55940 + 10 μM GAT229 [10, 14]: −144.6 ± 10.4 ∆BRET.sec
EMAX, CP55940 Alone [10, 15]: −110.8 ± 2.8 ∆BRET.sec
G protein dissociation, AUC, 10 μM CP55940 + 10 μM ZCZ011 [11, 12]: −186.8 ± 5.5
G protein dissociation, AUC of 10 μM compound (maximal response) ([11]; 10 μM ligand alone): −146.2 ± 5.5
EMAX, CP55940 + 10 μM GAT228 [11, 13]: −176.1 ± 6.9 ∆BRET.sec
EMAX, CP55940 + 10 μM GAT229 [11, 14]: −186.4 ± 7.5 ∆BRET.sec
EMAX, CP55940 Alone [11, 15]: −143.0 ± 5.7 ∆BRET.sec
